# Source: a melting point compilation (Tetko et al.; mined from patent text by program, amines drawn as free bases though some values may be those of a salt)
row,Structure (SMILES),melting point [°C]
1,CCCCCCCCCCCCCCOc1ccccc1NC(=O)c1cc(Sc2nnnn2-c2cccc(C(=O)OCC)c2)c2ccccc2c1O,88 to 90
2,CCOC(=O)CC(=O)c1cc(F)c(F)c(Br)c1F,85 to 88
3,CCCn1c(COCC)nc2c(N)nc3ccc(OC4CCNCC4)cc3c21,176 to 178
4,CC(C)c1ocnc1C(=O)O,136 to 137
5,CCOC(=O)C1=C(C)N2CCNC2=C(C(=O)OCC)C1c1cccc2ccccc12 (centres undefined),169 to 170
6,NC(=S)c1c(Cl)c(-c2cccnc2)n2c1CN(C(=O)Nc1ccc(F)cc1)CC2,214 to 216
7,CSC(Nc1cccnc1)=C(C#N)C#N,180 to 181
8,ClCOc1ccc(Cl)cc1Br,56 to 57.5
9,Cc1cc(Nc2nccc(-c3sc(CO)nc3C)n2)ccc1N1CCCCC1,142 to 144
10,CCc1cccc2c(-c3nc(OC)cc(OC)n3)c(C)[nH]c12,90.3 to 94.8
11,CN(C)CCCOc1cc(F)c(-c2c(Cl)nc(-n3ccnc3)nc2NCC(F)(F)F)c(F)c1,47 to 49
12,COC(=O)CNc1cc(O)c(C(C)=O)c(OC)c1,114 to 115
13,Oc1ccc2[nH]cc(CCCCN3CCN(c4ccc5c(c4)CCCO5)CC3)c2c1,220 to 222
14,CCCCCCCCCCCCc1ccc(S(=O)(=O)Nc2nnc(CCCCCN(C)c3ccc([N+](=O)[O-])c4nonc34)s2)cc1,102 to 104
15,CCOC(=O)C#CC(OC(N)=O)c1ccccc1 (centres undefined),82
16,C[C@]1(COC(=O)N2CCC(Oc3ccc(C(F)(F)F)cc3)CC2)Cn2cc([N+](=O)[O-])nc2O1,165 to 166
17,CC(=N)Nc1ccccc1N1CCOCC1,140 to 141
18,CCCCCCCCCCCCCCCCOCC(CO)COC(c1ccccc1)(c1ccccc1)c1ccccc1 (centres undefined),38
19,O=C(OCc1ccccc1)[C@H](CC(=O)N1C[C@H]2CCCC[C@H]2C1)Cc1ccccc1,107 to 108
20,CNC(=O)C(NC(=O)c1ccc(F)cc1C(F)(F)F)C(O)C(F)(F)F (centres undefined),212

row,Structure (SMILES),melting point [°C]
1,O=S1(=O)NCC2(OCCO2)c2ccc3ccccc3c21,202 to 204
2,COc1ccc(CNc2nc(C)nc(C)c2Cl)cc1Oc1ccc2ncc([N+](=O)[O-])n2n1,273 to 274
3,CC(=O)N1C=C(c2ccccc2)NC(=O)C1C(C)C (racemic),182 to 185
4,CCOC(=O)c1c(N)c2cccnc2n(C)c1=O,203 to 206
5,C[C@H]1C(=O)C[C@@H]2C[C@H]1OO[C@]2(C)/C=C\c1cc(C(F)(F)F)nc2cc(C(F)(F)F)ccc12,160
6,O=C(O)C1=Cc2cc(Cl)cc(-c3cccs3)c2OC1C(F)(F)F (centres undefined),258 to 259
7,CCCn1c(=O)n2c(-c3cccs3)nnc2c2c1ncn2C,206 to 207
8,COCOc1ccc(O)cc1OC,70 to 72
9,CC(C)(C)OC(=O)C[C@@H]1C[C@@H](COS(C)(=O)=O)NC1=O,114 to 116
10,O=C(O)Cc1c(C(=O)c2cccc(Br)c2)[nH]c2cc(Cl)ccc12,215 to 218
11,N#Cc1nn(-c2c(Cl)cc(C(F)(F)F)cc2Cl)c(N)c1-c1ccc(SC(F)(F)F)s1,162 to 163
12,CCOC(=O)c1c[nH]c2c(=O)ccc(Cl)cc2c1=O,138 to 140
13,N#Cc1c(C(F)(F)F)[nH]c2ccc(Br)cc12,188 to 192
14,COc1ccc(C(=O)CC(SC(C)=O)C(=O)O)cc1OC (centres undefined),110 to 112
15,CN(C)C=NS(=O)(=O)c1c2c(O)cccc2nn1C,118 to 119
16,COc1cc(OC)c2c(=O)c3c(Cl)ccc([N+](=O)[O-])c3[nH]c2c1,291 to 294
17,CC(=O)Nc1cc2c(cc1[N+](=O)[O-])[C@@H](NC(C)=O)[C@H](O)C(C)(C)O2 (relative stereo),256 to 259
18,Cc1cc(NC(=O)C(C)(O)COc2ccc(OCCCl)cc2)ccc1[N+](=O)[O-] (centres undefined),131 to 133
19,CN1C(=O)[C@H](NC(=O)CCCc2cccs2)N=C(c2ccccc2)c2ccccc21,170 to 180
20,CN(c1cc(OCCCS(C)(=O)=O)cc2cc(C3=NCC(CN4CCOCC4)S3)[nH]c12)S(=O)(=O)c1ccccn1 (centres undefined),168 to 169

row,Structure (SMILES),melting point [°C]
1,Fc1ccc2c(c1)C(c1ccccc1F)=NCCN2C1=NCCO1,180 to 181
2,CCOc1cc([C@@H](CS(C)(=O)=O)N2C(=O)c3cccc(NC(=O)COC)c3C2=O)ccc1OC,151 to 153
3,OC1(c2ccccn2)CCC2CCCC21 (centres undefined),66 to 66.5
4,COC(=O)C#CC(=O)c1cccc(Cl)c1,73 to 75
5,O=C(OCC1(c2ccccc2)CC1)c1cccc2nnsc12,55 to 57
6,CC(C)c1cc(CCC(=O)O)n(Cc2ccc(Cl)cc2Cl)n1,105 to 108
7,OC1(c2ccc(Cl)cc2)c2cc(Cl)c(Cl)cc2CCC1Br (centres undefined),103 to 104
8,COC(=O)c1ncn2c1CN(C)C(=O)c1ccccc1-2,212 to 214
9,O=C1NC(=O)C2(N1)C(=O)N(Cc1ccc(Br)cc1F)c1c(Cl)cccc12 (centres undefined),240 to 241
10,O=C1OCCC12Sc1ccc(S(=O)(=O)N3CCCCC3)cc1C2=O (centres undefined),159 to 161
11,C=C=CC1(OC(C)=O)CCC2C3CCc4cc(OC)ccc4C3CCC21C (centres undefined),89 to 90
12,COC(=O)C1=C(C)Nc2ncnc(OC(C)C)c2C1c1cccc([N+](=O)[O-])c1 (centres undefined),218 to 219
13,COc1cc(O)c2c(c1)CC(C(=O)Nc1ccc(CC3SC(=O)NC3=O)cc1)SCC2=O (centres undefined),131 to 134
14,NC(CCCCNC(=O)NC(Cc1c[nH]c2ccccc12)C(=O)O)C(=O)O (centres undefined),133
15,Cn1cc(C2=C(c3cn(CCCNCCN)c4ccccc34)C(=O)NC2=O)c2ccccc21,190 to 193
16,CCCCOC(=O)N(C)S(=O)(=O)c1cc([N+](=O)[O-])c(N(CCC)CCC)c([N+](=O)[O-])c1,99 to 101
17,N#Cc1cc(C(=O)c2ccccc2)ccc1[N+](=O)[O-],117 to 119
18,CCS(=O)(=O)c1ccccc1S(N)(=O)=O,179 to 181
19,ClCc1nc2cc(Br)ccc2o1,63 to 65
20,NC1=NS(=O)N=C1NCCCN(Cc1ccsc1)c1ccccn1 (centres undefined),140 to 142

# The next lines start with the values.
row,melting point [°C],Structure (SMILES)
1,205 to 206,Cc1cc(C(=O)c2sc(Nc3ccc(N4CCN(C)CC4)cc3)nc2N)c(C)s1
2,248 to 250,COc1ccc(-n2c(CC(=O)O)c(C(=O)O)c3cc(Oc4ccc(C(F)(F)F)cc4)ccc32)cc1
3,140 to 141,CC(COC(=O)C(=O)Nc1nc(-c2ccccc2)cs1)c1ccccc1 (centres undefined)
4,174 to 176,CN1CC(c2ccc(Cl)cc2)=NN(c2ccc(Cl)cc2)C1=O
5,123 to 124,CN(C)C(=O)Cc1cccc(C(=O)c2ccccc2)c1N
6,204 to 205,COc1ccc2c(=O)[nH]c(-c3ccc(OCCNC(C)C)c(-c4ccc(S(C)(=O)=O)cc4)n3)nc2c1
7,136 to 140,O=C1CCN(c2ccc(S(=O)(=O)NCc3ccccc3)cc2)CC1
8,144 to 146,COc1ccc(CCNS(=O)(=O)c2ccc(N)cc2)cc1
9,240 to 241,CSc1ccc(-c2coc3ccc(C(=O)NN)nc23)cc1
10,104 to 105,CN(C)C(=O)Nc1cccc(C(=O)c2ccccc2)c1
11,112 to 113,COc1cccc(-c2nc(-c3ccccc3)c3ncc(-c4csc5ccccc45)cc3n2)c1
12,167 to 171,COc1cccc2cc(C(=O)c3ccc(Cl)c(S(N)(=O)=O)c3)oc12
13,77 to 79,CCOC(=O)C1=Cc2cc3ccccc3n2CC1
14,44 to 46,CC(C)(c1ccccc1)n1nnc(-c2ccccc2)n1
15,132 to 133,COc1ccc([C@@H]2SC(c3ccccc3)=C(C)N(CCN(C)C)C(=O)[C@H]2O)cc1 (relative stereo)
16,153,Cc1cccc(C(=O)COc2c(C(=O)c3ccc(Cl)c(C)c3Cl)c(C)nn2C)c1
17,131 to 132,COCCNC(=O)c1cccc(-c2cccc3cc(Cc4cccc(S(C)(=O)=O)c4)sc23)c1
18,110,OC1CSC(Oc2cccnc2-c2ccc(F)cc2)C(O)C1O (centres undefined)
19,239 to 241,CNS(=O)(=O)c1cc(C(=O)NNC(=O)c2occ(-c3ccccc3)c2-c2ccccc2)ccc1OC
20,98 to 99,O=C(c1ccccc1CBr)c1ccc(F)cc1CBr

row,melting point [°C],Structure (SMILES)
1,198 to 200,CC(C)(C)OC(=O)N[C@H]1CCc2cc(-c3ccccc3)ccc2NC1=O
2,153 to 155,CCCc1nc(N(C)c2ccccc2)n2ncc(C(O)c3ccccc3Cl)c2n1 (centres undefined)
3,209 to 211,Cc1ccc(-n2ncc(C(=O)O)n2)cc1
4,204 to 207,COc1ccc(C(C)=NNc2ccc(C3=NNC(=O)CC3)cc2)cc1
5,290 to 293,NC(=O)c1ccc(-c2n[nH]c3c2Cc2ccccc2-3)cc1
6,182 to 185,CSc1cccc(SC)c1S(=O)(=O)NC(C)(C)C
7,92 to 94,Cn1ccc2ccc(-c3ccc(C(C)(C)C)cc3)cc21
8,134 to 135,CCCCNc1nc(-c2ccc(F)cc2)c(-c2ccc(S(C)(=O)=O)cc2)s1
9,154,COc1ccc(C(O)(CN2CCNC2=O)c2ccccc2)cc1OC (centres undefined)
10,80,CC(C)(C)c1cc(Cl)c(Cl)cc1[N+](=O)[O-]
11,236 to 238,CN1CCN(C(=O)c2nc(-c3ccccc3)nc3c2c2ccc(Cl)cc2n3C)CC1
12,236 to 238,CCCCOCCOc1ccc(-c2ccc3c(c2)C=C(C(=O)O)CCN3c2ccc(S(=O)(=O)N(C)C)cc2)cc1
13,262 to 263,COC1c2ccccc2C(c2ccc([N+](=O)[O-])cc2)=NN(c2nc(=O)n(C)s2)C1(C)OC (centres undefined)
14,89 to 90,CC(=O)c1cc(-c2cccc(Cl)c2)ccc1N
15,101,COC[C@@H]1CN(c2ccc(OCc3ccccc3)cc2)C(=O)O1
16,218 to 220,CCN(C(=O)c1ccccc1C(c1ccc(O)cc1)c1ccc(O)cc1)c1cccc(C)c1
17,104 to 106,N#Cc1ccc2c(c1)C(=O)c1ccccc1CC2
18,99.5 to 102,COc1ccc(-c2nc3ccccc3o2)cc1
19,169 to 171,CC(C)(C)N(NC(=O)c1ccccc1)C(=S)c1ccccc1
